Reference: PMC3025922 (BMC Biology, 2010)
Residues, ends and D or L forms follow the SMILES beside them. *: point of attachment. Cbz = O=C(OCc1ccccc1)*

Legend:
[1] = test system: p21 protein levels in PC3 cells; test: Immunoblot quantification of p21, PC3; assay type: cell-based, human; details: PC3, 24 h; SMIPs 40 μM, MG132 20 μM, bortezomib 100 nM
Experimental: (§1) Total cell lysate from cells treated with vehicle (DMSO) or compounds were obtained by incubating cells in lysis buffer (25 mM Tris-HCl pH 7.4, 150 mM NaCl, 0.5% Triton X-100, protease inhibitors) for 15 min at 4°C. The supernatant was collected by centrifugation and the amount of protein was determined with a Bio-Rad protein assay (Bio-Rad) using BSA as standard. Equal amounts of protein were subjected to SDS-PAGE (4%-20% gels, Invitrogen) and transferred to PVDF membranes. The membranes were blocked with TBST (50 mM Tris-HCl pH 7.5, 150 mM NaCl, 0.05% Tween-20) containing 5% non-fat dry milk or bovine serum albumin (BSA) for 1 h at room temperature, followed by incubation in primary antibodies 4°C overnight. Membranes were washed and incubated with secondary antibodies conjugated to HRP (Jackson ImmunoResearch Laboratories) for 1 h at room temperature. Signals were visualized using the ECL Western Blotting Substrate (Pierce Biotechnology, IL, USA) according to the manufacturer's instructions. Membranes were stripped using Restore™ Western Blot Stripping Buffer (Pierce Biotechnology). Films were scanned and quantification of the bands was performed using Image J software http://rsbweb.nih.gov/ij/.

[2] = test system: p27 protein levels in LNCaP cells; test: Immunoblot quantification of p27, LNCaP; assay type: cell-based, human; details: LNCaP, 24 h; SMIPs 40 μM, MG132 20 μM, bortezomib 100 nM
Experimental: as §1

[3] = test system: p27 protein levels in PC3 cells; test: Immunoblot quantification of p27, PC3; assay type: cell-based, human; details: PC3, 24 h; SMIPs 40 μM, MG132 20 μM, bortezomib 100 nM
Experimental: as §1

[4] = test system: p27 protein levels in LNCaP-S14 cells; test: Immunoblot quantification of p27, LNCaP-S14; assay type: cell-based, human; details: LNCaP-S14, 24 h; SMIPs 40 μM, MG132 20 μM, bortezomib 100 nM
Experimental: as §1

[5] = test system: p21 protein levels in DU145 cells; test: Immunoblot quantification of p21, DU145; assay type: cell-based, human; details: DU145, 24 h; SMIPs 40 μM, MG132 20 μM, bortezomib 100 nM
Experimental: as §1

[6] = test system: p27 protein levels in IMR90 cells; test: Immunoblot quantification of p27, IMR90; assay type: cell-based, human; details: IMR90, 24 h; SMIPs 40 μM, MG132 20 μM, bortezomib 100 nM
Experimental: as §1

[7] = test system: p27 protein levels in DU145 cells; test: Immunoblot quantification of p27, DU145; assay type: cell-based, human; details: DU145, 24 h; SMIPs 40 μM, MG132 20 μM, bortezomib 100 nM
Experimental: as §1

[8] = test system: p21 protein levels in IMR90 cells; test: Immunoblot quantification of p21, IMR90; assay type: cell-based, human; details: IMR90, 24 h; SMIPs 40 μM, MG132 20 μM, bortezomib 100 nM
Experimental: as §1

[9] = test system: p27 protein levels in HeLa cells; test: Immunoblot quantification of p27, HeLa; assay type: cell-based, human; details: HeLa, 24 h; SMIPs 40 μM, MG132 20 μM, bortezomib 100 nM
Experimental: as §1

[10] = test system: polyubiquitylated proteins in LNCaP-S14 cells; test: Anti-ubiquitin immunoblot of total lysate; assay type: cell-based, human; details: LNCaP-S14, SMIPs 20 and 40 μM, MG132 20 μM, bortezomib 100 nM, 24 h
Experimental: as §1

[11] = test system: p21 protein levels in HeLa cells; test: Immunoblot quantification of p21, HeLa; assay type: cell-based, human; details: HeLa, 24 h; SMIPs 40 μM, MG132 20 μM, bortezomib 100 nM
Experimental: as §1

[12] = MTT cytotoxicity assay, IMR90; assay type: cell-based; details: human, IMR90, 0.01 - 40 μM, 72 h
Experimental: (§2) LNCaP-S14 (10,000 cells), PC3, DU145 or IMR90 cells (5000 cells) were seeded in 96-well plates and treated with increasing concentrations of the respective SMIPs for 72 h. Cell viability was assessed using the MTT cell proliferation assay (ATCC®, Middlesex, UK) according to the manufacturer's protocol. IC50 was calculated using the BioDataFit 1.02 software http://www.changbioscience.com/stat/ec50.html.

[13] = test system: p21 protein levels in LNCaP cells; test: Immunoblot quantification of p21, LNCaP; assay type: cell-based, human; details: LNCaP, 24 h; SMIPs 40 μM, MG132 20 μM
Experimental: as §1

LNCaP-S14 cells = test: MTT cytotoxicity assay, LNCaP-S14; details: Homo sapiens, 72 h, read-out: IC50 (MTT cytotoxicity)
Experimental: as §2

Structure (SMILES) | p21 protein level (immunoblot, DMSO = 1.0) [1] | p27 protein level (immunoblot, DMSO = 1.0) [2] | p27 protein level (immunoblot, DMSO = 1.0) [3] | p27 protein level (immunoblot, DMSO = 1.0) [4] | p21 protein level (immunoblot, DMSO = 1.0) [5] | p27 protein level (immunoblot, DMSO = 1.0) [6] | p27 protein level (immunoblot, DMSO = 1.0) [7] | p21 protein level (immunoblot, DMSO = 1.0) [8] | p27 protein level (immunoblot, DMSO = 1.0) [9] | accumulation of polyubiquitylated proteins [10] | p21 protein level (immunoblot, DMSO = 1.0) [11] | IC50 [12] [nM] | p21 protein level (immunoblot, DMSO = 1.0) [13] | IC50 (LNCaP-S14 cells) [nM]
CC(C)C[C@H](NC(=O)[C@H](Cc1ccccc1)NC(=O)c1cnccn1)B(O)O [Bortezomib, reference compound] | 4.7 ± 1.4 | 2.1 | 2.5 ± 1.0 | 1.8 | 2.5 ± 0.4 | 1.8 ± 0.0 | 1.7 ± 0.5 | 1.8 ± 0.4 | 1.3 ± 0.2 | readily seen | 2.2 ± 0.8 | – | – | –
CC(C)C[C@@H](C=O)NC(=O)[C@H](CC(C)C)NC(=O)[C@H](CC(C)C)NC(=O)OCc1ccccc1 [MG132, reference compound] (Cbz-Leu-Leu-Leu-aldehyde) | 4.1 ± 0.4 | 1.9 ± 0.1 | 2.0 ± 1.0 | 1.5 | 3.1 | 0.9 ± 0.5 | 2.4 ± 0.1 | – | 2.2 ± 0.9 | readily seen | 5.9 ± 1.7 | 445 | 2.9 | 379
